This is an account of results in patent US20080139654A1, “ACETAMINOPHEN COMPOSITIONS HAVING MINIMIZED SIDE EFFECTS INCLUDING REDUCED HEPATOTOXICITY” (priority 2006, published 2008).

The conditions of data set [1]: male, human, in vivo. The source says: A construction worker* fell from a height of about 8 feet, severely breaking their right ankle and wrist. (*to promote privacy and simplify description of the invention, the patient and symptoms described here are a composite of data from typical patients). Orthopedic surgery repaired the injury, followed by prolonged and painful rehabilitation. A prescription for 60 Vicodin tablets (a composition comprising acetaminophen and hydrocodone) is given routinely during such post-surgical recovery periods. Typcially, the first day 4 to 8 vicodin tablets manage pain (often in combination with sedatives and the aftereffects of surgical anesthetics).
On the second day, at least 8 Vicodin® tablets are generally required to get the same analgesic effect (Vicodin is a well known trademark, which will also be referred to herein by “vicodin”). Subsequently, it is common that more than 10 vicodin tablets per day are taken, contrary to the doctor's instructions, yet less pain relief is noted with this higher dosage. At this rate, the patient must seek a refill in only a week; often doctors refilling such prescriptions give a stern advisory about taking too many pills and the dangers of Tylenol/acetaminophen. Subsequently, the patient sought prescriptions from other physicians and took 30 Vicodin tablets each day. […]

For data set [2] the following is noted: rat, oral.
Method: The effect of prophylactic administration of n-acetylcysteine (NAC) on acetaminophen hepatotoxicity can be determined in the rat. In a double-blind placebo study, four groups of rats are given one of the following oral dosings: “NAC-free” (NF), low NAC (LN), medium NAC (MN), or high NAC(HN). Then rats in all groups are administered a toxic dose of acetaminophen (1 g/kg body weight) orally. After 24 hours, animal are euthanized and assessed for hepatotoxicity by the elevation of serum transaminases and by a necrotic score based on histological examination.
In the following protocol, all rats in the study are given the LD50 dose of acetaminophen (determined by the dosage of acetaminophen that causes 50% of the test subjects to expire after a predetermined period of time). […] The study is conducted in double-blind fashion; four groups of rats are given one of the following oral dosings: “NAC-free” (NF or placebo), low NAC (LN), medium NAC (MN), or high NAC(HN). Then rats in all groups are administered a LD50 dose of acetaminophen. All animals are euthanized 3 weeks later and hepatotoxicity assessed by the elevation of serum transaminases and by a necrotic score based on histological examination. Mortality in all groups will also be followed as the added criterion.
The conditions of data set [3]: person, 4 grams/day; cited from earlier work.
The conditions of data set [4]: Mucomyst monograph; cited from earlier work.
For data set [5] the following is noted: rats, oral methionine 200 mg/kg/day for 14 days; cited from earlier work.

Turning to `CC(=O)Nc1ccc(O)cc1` [acetaminophen, N-acetyl-p-aminophenol], the destruction of liver entry in data set [1] is “over 90%”. For the same compound, the “LD50 dose of acetaminophen” value in data set [2] is reported as 0.5 g/kg of Body weight. In data set [3], the “hepatotoxicity at recommended dose” value is listed as “severe hepatotoxicity”. Besides, the “large overdose that saturates glucuronide and sulfate conjugation pathways, leading to hepatic cellular necrosis” value in data set [4] was no less than 150 mg·kg.

As for `CSCC[C@H](N)C(=O)O` [methionine], in data set [5], the angiotoxic effects result is reported as “angiotoxic effects similar to atherosclerosis” and the “concentrations of homocysteine in serum” value is on record as “increased”.
